Experimental data published in the supplement of paper PMC11061612.

Columns and labels:
Experiment in all cases: combination Emax (second highest fraction inhibited in the dose matrix, 72 h); higher = more inhibition; extreme values may be limits of the assay
[1] = tested on: CAL-27 (Oral Cavity Carcinoma)
How it was run: (§1)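 After 24 hours at 37°C and 5% CO2 in 1536-well plates, cells in DMEM/F12 or RPMI plus 10% FBS received two-drug dose matrices for 72 hours. Viability came from CellTiter-Glo 2.0 luminescence and was scaled as inhibition, anchored at 0 by vehicle wells and at 1 by blank wells. Combination Emax is taken as the second-highest inhibition in the matrix, and Bliss excess as the observed combination effect less EA + EB − EA·EB, with EA and EB the single-agent effects.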

[2] = tested on: UACC-812 (Breast Carcinoma)
How it was run: as §1

[3] = tested on: A2780 (Ovarian Carcinoma)
How it was run: as §1

[4] = tested on: CA46 (Burkitt's Lymphoma)
How it was run: as §1

AU565 (Breast Carcinoma) = tested on: AU565 (Breast Carcinoma)
How it was run: as §1

[5] = tested on: JIMT-1 (Breast Carcinoma)
How it was run: as §1

[6] = tested on: NCI-H716 (Colorectal Carcinoma)
How it was run: as §1

[7] = tested on: 22RV1 (Prostate Carcinoma)
How it was run: as §1

[8] = tested on: huH-1 (Hepatocellular Carcinoma)
How it was run: as §1

[9] = tested on: GCT (Other Solid Carcinomas)
How it was run: as §1

[10] = tested on: LU-165 (Small Cell Lung Carcinoma)
How it was run: as §1

[11] = tested on: MDA-MB-436 (Breast Carcinoma)
How it was run: as §1

[12] = tested on: LS-411N (Colorectal Carcinoma)
How it was run: as §1

[13] = tested on: NCI-H1651 (Lung Adenocarcinoma)
How it was run: as §1

[14] = tested on: NCI-H1703 (Squamous Cell Lung Carcinoma)
How it was run: as §1

[15] = tested on: KYSE-140 (Esophageal Squamous Cell Carcinoma)
How it was run: as §1

[16] = tested on: JHH-2 (Hepatocellular Carcinoma)
How it was run: as §1

[17] = tested on: OACp4C (Esophageal Adenocarcinoma)
How it was run: as §1

EW-7 (Ewing's Sarcoma) = tested on: EW-7 (Ewing's Sarcoma)
How it was run: as §1

PEO1 (Ovarian Carcinoma) = tested on: PEO1 (Ovarian Carcinoma)
How it was run: as §1

Compound | combination Emax [1] | combination Emax [2] | combination Emax [3] | combination Emax [4] | combination Emax (AU565 (Breast Carcinoma)) | combination Emax [5] | combination Emax [6] | combination Emax [7] | combination Emax [8] | combination Emax [9] | combination Emax [10] | combination Emax [11] | combination Emax [12] | combination Emax [13] | combination Emax [14] | combination Emax [15] | combination Emax [16] | combination Emax [17] | combination Emax (EW-7 (Ewing's Sarcoma)) | combination Emax (PEO1 (Ovarian Carcinoma))
CN(C)CCCOc1ccc(-c2ccc3ncc4c(c3c2)n(C2CCOCC2)c(=O)n4C)cn1 [AZD0156] + C=CCn1c(=O)c2cnc(Nc3ccc(N4CCN(C)CC4)cc3)nc2n1-c1cccc(C(C)(C)O)n1 [AZD1775] (first compound max 1 µM, partner max 1 µM) | 0.376 | 0.156 | 0.79 | 0.636 | 0.454 | 0.488 | 0.482 | 0.346 | 0.592 | 0.413 | 0.38 | 0.195 | 0.641 | 0.62 | 0.967 | 0.844 | 0.53 | 0.83 | 0.884 | 0.341
CN(C)CCCOc1ccc(-c2ccc3ncc4c(c3c2)n(C2CCOCC2)c(=O)n4C)cn1 [AZD0156] + CCN(CCO)CCCOc1ccc2c(Nc3cc(CC(=O)Nc4cccc(F)c4)[nH]n3)ncnc2c1 [AZD2811] (first compound max 1 µM, 7x7, partner max 1 µM) | 0.546 | 0.148 | 0.609 | 0.291 | 0.208 | 0.0631 | 0.45 | 0.267 | 0.317 | 0.161 | 0.114 | 0.0531 | 0.137 | 0.107 | 0.506 | 0.288 | 0.287 | 0.598 | 0.403 | 0.157
CN(C)CCCOc1ccc(-c2ccc3ncc4c(c3c2)n(C2CCOCC2)c(=O)n4C)cn1 [AZD0156] + C[C@@H]1COCCN1C2=NC(=NC(=C2)C3(CC3)[S@](=N)(=O)C)C4=C5C=CNC5=NC=C4 [AZD6738] (first compound max 1 µM, 7x7, partner max 10 µM) | 0.586 | 0.295 | 0.81 | 0.746 | 0.473 | 0.799 | 0.667 | 0.524 | 0.821 | 0.231 | 0.233 | 0.23 | 0.808 | 0.649 | 0.856 | 0.934 | 0.597 | 0.724 | 0.935 | 0.533
CN(C)CCCOc1ccc(-c2ccc3ncc4c(c3c2)n(C2CCOCC2)c(=O)n4C)cn1 [AZD0156] + O=C(c1cc(Cc2n[nH]c(=O)c3ccccc23)ccc1F)N1CCN(C(=O)C2CC2)CC1 [Olaparib] (first compound max 3 µM, partner max 3 µM) | 0.299 | 0.261 | 0.595 | 0.567 | 0.631 | 0.0881 | 0.225 | 0.483 | 0.174 | 0.282 | 0.21 | 0.205 | 0.349 | 0.493 | 0.582 | 0.113 | 0.319 | 0.406 | 0.524 | 0.122
C=CCn1c(=O)c2cnc(Nc3ccc(N4CCN(C)CC4)cc3)nc2n1-c1cccc(C(C)(C)O)n1 [AZD1775] + C1CN(CCC1(C(=O)N[C@@H](CCO)C2=CC=C(C=C2)Cl)N)C3=NC=NC4=C3C=CN4 [Capivasertib] (first compound max 3 µM, partner max 3 µM) | 0.715 | 0.466 | 0.873 | 0.843 | 0.833 | 0.76 | 0.727 | 0.616 | 0.666 | 0.623 | 0.536 | 0.41 | 0.878 | 0.794 | 0.911 | 0.844 | 0.625 | 0.889 | 0.896 | 0.773
Cc1c2c(nn1C)CSCc1cc(n(C)n1)CSc1cc(c3ccccc3c1)OCCCc1c(C(=O)O)n(C)c3c-2c(Cl)ccc13 [AZD5991] + CC1(C)CCC(CN2CCN(c3ccc(C(=O)NS(=O)(=O)c4ccc(NCC5CCOCC5)c([N+](=O)[O-])c4)c(Oc4cnc5[nH]ccc5c4)c3)CC2)=C(c2ccc(Cl)cc2)C1 [Venetoclax] (first compound max 1 µM, 7x7, partner max 1 µM) | 0.955 | 0.694 | 0.817 | 0.118 | 1 | 0.215 | 0.176 | 0.462 | 0.162 | 0.288 | 0.291 | 0.0835 | 0.157 | 0.213 |  | 0.485 | 0.218 | 0.74 | 0.487 | 0.164
Cc1c2c(nn1C)CSCc1cc(n(C)n1)CSc1cc(c3ccccc3c1)OCCCc1c(C(=O)O)n(C)c3c-2c(Cl)ccc13 [AZD5991] + CN(C)CCCOc1ccc(-c2ccc3ncc4c(c3c2)n(C2CCOCC2)c(=O)n4C)cn1 [AZD0156] (first compound max 1 µM, 7x7, partner max 1 µM) | 0.958 | 0.491 | 0.682 | 0.294 | 1 | 0.225 | 0.294 | 0.476 | 0.24 | 0.502 | 0.286 | 0.167 | 0.136 | 0.212 | 0.892 | 0.488 |  | 0.469 | 0.376 | 0.15
